Results published in PMC10730852 (Communications Biology, 2023).
“And” between values parts separate entries of the source, which are not always exact repeats. Equal values may be shown once. Read-outs that look alike come from different tables or passages of the source.

Experiments:
Cph001 = assay: Coupled enzyme assay and Michaelis-Menten kinetics of Cph001; type: biochemical, Streptosporangium roseum; conditions: for initial velocity, Figure 3c ii, Triplicate: 2 mM GTP; for initial velocity, Figure 3c i, Triplicate: 2 mM ATP; for absorbance at 340 nm, Average of triplicate: 2 mM substrate + ATP
Protocol: The phosphorylation reaction was measured by a coupled enzyme assay as following. […] The reactions were mixed well in a final volume of 200 μL in 96-well plates. The Cph001 activity was assayed by determining the oxidation of NADH at 340 nm. The reaction buffer and enzyme concentration of the Cph reaction was followed by previous study. The 340 nm absorbance changes were detected at 30 °C for every 1 min at a time in 15 min on an EPOCH Microplate Reader (BioTek). All reactions were carried out in triplicate.
The initial velocity data were plotted against substrate concentrations and fit the Michaelis-Menten equation. The Km and Vmax values were calculated based on the Michaelis-Menten equation. GraphPad Prism was used for statistical data analysis. All reactions were carried out in triplicate.

E. coli/cph001 = assay: Disk diffusion assay; type: cell-based, E. coli BL21 Rosetta (DE3)
Protocol: (§1) The E. coli BL21 Rosetta (DE3) strains containing pET22b, and its carrying cph, cph001, cph002, cph003, aph(3′)-Ia, and mphB plasmids were cultured overnight. The cells, respectively, were then diluted to 0.1 OD600 in molten LB agar with 100 μg/mL ampicillin and 500 μM IPTG for the disk diffusion assay. The cells with ampicillin and IPTG were mixed well with molten LB agar and then poured into 10 cm diameter Petri dishes. The 7 mm disks were placed onto the LB agar and gently loaded with varying quantities of CMN IIA, CMN IIB, VIO, Kan, and Ery, ranging from 0 to 200 μg. The Petri dishes were placed in the incubator at 37 °C and the inhibition zones were observed after 24 hr.

E. coli/cph002 = assay: Disk diffusion assay; type: cell-based, E. coli BL21 Rosetta (DE3)
Protocol: as §1

E. coli/cph003 = assay: Disk diffusion assay; type: cell-based, E. coli BL21 Rosetta (DE3)
Protocol: as §1

E. coli/cph = assay: Disk diffusion assay; type: cell-based, E. coli BL21 Rosetta (DE3)
Protocol: as §1

[1] = Escherichia coli, 24 h, read-out: inhibition zones

SMILES: N=C1NCCC([C@@H]2NC(=O)/C(=C/NC(N)=O)NC(=O)[C@H](CNC(=O)C[C@@H](N)CCCN)NC(=O)[C@H](CO)NC(=O)[C@@H](N)CNC2=O)N1 (stereo in doubt) [CMN IIA]
- initial velocity, Figure 3c ii, Triplicate (Cph001; 0.4 mM CMN IIA): 5.814e-5 and 4.992e-5 and 4.228e-5
- initial velocity, Figure 3c i, Triplicate (Cph001; 0.5 mM CMN IIA): 0.0001245 and 0.0001897 and 0.0001595
- initial velocity, Figure 3c ii, Triplicate (Cph001; 0.5 mM CMN IIA): 6.636e-5 and 7.341e-5 and 7.765e-5
- initial velocity, Figure 3c i, Triplicate (Cph001; 0.7 mM CMN IIA): 0.0002053 and 0.000222 and 0.0002263
- initial velocity, Figure 3c ii, Triplicate (Cph001; 0.7 mM CMN IIA): 9.514e-5 and 7.693e-5 and 6.952e-5
- initial velocity, Figure 3c i, Triplicate (Cph001; 1 mM CMN IIA): 0.0002288 and 0.0002649 and 0.0003551
- initial velocity, Figure 3c ii, Triplicate (Cph001; 1 mM CMN IIA): 0.0001233 and 0.000121 and 0.0001065
- initial velocity, Figure 3c i, Triplicate (Cph001; 2 mM CMN IIA): 0.0003304 and 0.0004291 and 0.0004233
- initial velocity, Figure 3c ii, Triplicate (Cph001; 2 mM CMN IIA): 0.0002014 and 0.0002003 and 0.0001825
- phosphorylation by Cph001 in couple enzyme assay (Cph001; 2 mM antibiotic substrate, ATP as phosphate donor, absorbance at 340 nm): decrease in absorbance at 340 nm
- initial velocity, Figure 3c i, Triplicate (Cph001; 4 mM CMN IIA): 0.0003294 and 0.0004402 and 0.000432
- initial velocity, Figure 3c ii, Triplicate (Cph001; 4 mM CMN IIA): 0.0001744 and 0.0002267 and 0.0002057
- initial velocity, Figure 3c i, Triplicate (Cph001; 6 mM CMN IIA): 0.0003263 and 0.0004514 and 0.0003777
- initial velocity, Figure 3c ii, Triplicate (Cph001; 6 mM CMN IIA): 0.0002402 and 0.000232 and 0.000183
- Km (Cph001; ATP as phosphate donor (2 mM), pseudo-first-order conditions, mean ± SEM, n = 3, read-out: apparent Michaelis constant (Km) of CMN IIA): 880 ± 200 µM
- Km (Cph001; ATP series, first manuscript version as quoted by Reviewer #1, read-out: measured Km of CMN IIA): 876 µM
- Km (Cph001; GTP series, first manuscript version as quoted by Reviewer #1, read-out: measured Km of CMN IIA): 1400 µM
- Km (Cph001; saturating GTP as phosphate donor (2 mM), mean ± SEM, n = 3, read-out: apparent Km of CMN IIA): 1400 ± 240 µM
- absorbance at 340 nm, Average of triplicate (Cph001; time 00:00:00): 1.495
- absorbance at 340 nm, Average of triplicate (Cph001; time 00:01:00): 1.277
- absorbance at 340 nm, Average of triplicate (Cph001; time 00:02:00): 0.9337
- absorbance at 340 nm, Average of triplicate (Cph001; time 00:03:00): 0.6673
- absorbance at 340 nm, Average of triplicate (Cph001; time 00:04:00): 0.5687
- absorbance at 340 nm, Average of triplicate (Cph001; time 00:05:00): 0.52
- absorbance at 340 nm, Average of triplicate (Cph001; time 00:06:00): 0.3975
- absorbance at 340 nm, Average of triplicate (Cph001; time 00:07:00): 0.2841
- absorbance at 340 nm, Average of triplicate (Cph001; time 00:08:00): 0.2044
- absorbance at 340 nm, Average of triplicate (Cph001; time 00:09:00): 0.1613
- absorbance at 340 nm, Average of triplicate (Cph001; time 00:10:00): 0.1364
- absorbance at 340 nm, Average of triplicate (Cph001; time 00:11:00): 0.1231
- absorbance at 340 nm, Average of triplicate (Cph001; time 00:12:00): 0.1177
- absorbance at 340 nm, Average of triplicate (Cph001; time 00:13:00): 0.1173
- absorbance at 340 nm, Average of triplicate (Cph001; time 00:14:00): 0.1173
- absorbance at 340 nm, Average of triplicate (Cph001; time 00:15:00): 0.1177
- resistance in disk diffusion assay (E. coli/cph001; E. coli harboring cph001): becomes resistant
- zone of inhibition at 12.5 µg/disc (E. coli/cph001; [1]): 9.5 mm
- zone of inhibition at 50 µg/disc (E. coli/cph001; [1]): 13 mm
- zone of inhibition at 100 µg/disc (E. coli/cph001; [1]): 15 mm
- zone of inhibition at 200 µg/disc (E. coli/cph001; [1]): 18 mm
- resistance in disk diffusion assay (E. coli/cph002; E. coli harboring cph002): becomes resistant
- zone of inhibition at 12.5 µg/disc (E. coli/cph002; [1]): 14 mm
- zone of inhibition at 50 µg/disc (E. coli/cph002; [1]): 17 mm
- zone of inhibition at 100 µg/disc (E. coli/cph002; [1]): 19.5 mm
- zone of inhibition at 200 µg/disc (E. coli/cph002; [1]): 23 mm
- resistance in disk diffusion assay (E. coli/cph003; E. coli harboring cph003): becomes resistant
- zone of inhibition at 12.5 µg/disc (E. coli/cph003; [1]): 13 mm
- zone of inhibition at 50 µg/disc (E. coli/cph003; [1]): 16 mm
- zone of inhibition at 100 µg/disc (E. coli/cph003; [1]): 20 mm
- zone of inhibition at 200 µg/disc (E. coli/cph003; [1]): 22 mm
- resistance in disk diffusion assay (E. coli/cph; E. coli harboring cph): becomes resistant
- zone of inhibition at 50 µg/disc (E. coli/cph; [1]): 11 mm
- zone of inhibition at 100 µg/disc (E. coli/cph; [1]): 13 mm
- zone of inhibition at 200 µg/disc (E. coli/cph; [1]): 15.5 mm
